Measured values: patent US11013235B2 (priority 2015, dated 2021)
Where two headings read alike, the source gives them in different places.

How the values were obtained:
Format in all cases: in vivo
Radopholus similis = test: Nematode control, nodules per plant: Radopholus similis; details: 1 μM foliar application every 5 days, evaluation 35 days after, control 45
Experimental: (§1) The solutions of the compounds were prepared in ethanol and diluted in water, up to a concentration of 1 μM for a foliar application. Applications were conducted every 5 days, spraying only the leafs with each compound. Ten plants were used for each treatment and the final evaluation was performed 35 days after, by quantifying the number of nodules per plant.

Alternaria solani = test: Control of Alternaria solani disease in tomato (As-SI); details: 1 μM spraying every 24 hours for one week, water control 68
Experimental: (§2) In order to compare the effect of the compounds of formula I to V on the control of diseases in different plants, experiments were conducted in tobacco, tomato and Arabidopsis thaliana plants inoculated with Phytophthora parasitica, Rhizoctonia solani, Alternaria solani, Nocardia sp and Botrytis cinerea, respectively. The compounds were applied by spraying, at a concentration of 1 μM, every 24 hours for one week. The plant mortality rate was determined for the disease produced by Phytophthora parasitica, Rhizoctonia solani and Nocardia sp, while the percentage of leaves with symptoms was determined for the infection by Alternaria solani. In the case of plants affected by Botrytis cinerea, the lesion diameter was measured. […] Each treatment included fifty plants. As control, plants treated with water were studied. The plants of each treatment were previously inoculated with the indicated pathogens, according to different inoculation protocols (Frontiers in Plant Science 3: 268, 1-6, 2012), and later they were treated with the compounds.

Rhizoctonia solani [1] = test: Control of Rhizoctonia solani disease in tobacco (Rs-Nt); details: 1 μM spraying every 24 hours for one week, water control 87
Experimental: as §2

Pratylenchus coffeae = test: Nematode control, nodules per plant: Pratylenchus coffeae; details: 1 μM foliar application every 5 days, evaluation 35 days after, control 42
Experimental: as §1

Nocardia sp = test: Control of Nocardia sp disease in tobacco (N-Nt); details: 1 μM spraying every 24 hours for one week, water control 58
Experimental: as §2

Rhizoctonia solani [2] = test: Control of Rhizoctonia solani disease in tomato (Rs-SI); details: 1 μM spraying every 24 hours for one week, water control 96
Experimental: as §2

Botrytis cinerea [3] = test: Control of Botrytis cinerea disease in Arabidopsis (Bc-At); details: 1 μM spraying every 24 hours for one week, water control 8.7
Experimental: as §2

Meloidogyne incognita = test: Nematode control, nodules per plant: Meloidogyne incognita; details: 1 μM foliar application every 5 days, evaluation 35 days after, control 34
Experimental: as §1

Botrytis cinerea [4] = test: Control of Botrytis cinerea disease in tobacco (Bc-Nt); details: 1 μM spraying every 24 hours for one week, water control 6.7
Experimental: as §2

Phytophthora parasitica = test: Control of Phytophthora parasitica disease in tobacco (Pp-Nt); details: 1 μM spraying every 24 hours for one week, water control 91
Experimental: as §2

Botrytis cinerea [5] = test: Control of Botrytis cinerea disease in tomato (Bc-SI); details: 1 μM spraying every 24 hours for one week, water control 7.4
Experimental: as §2

[6] = tested on: Candidatus 'Liberibacter asiaticus'; details: spraying every 15 days, 12 months after treatment, Citrus sinensis with HLB

| SMILES | Rs: number of nodules per plant (Radopholus similis) | As-SI: percentage of leaves with the disease symptoms (Alternaria solani) [%] | Rs-Nt: percentage of mortality (Rhizoctonia solani [1]) [%] | Pc: number of nodules per plant (Pratylenchus coffeae) | N-Nt: percentage of mortality (Nocardia sp) [%] | Rs-SI: percentage of mortality (Rhizoctonia solani [2]) [%] | Bc-At: mean of the diameter of the lesion (Botrytis cinerea [3]) [mm] | Mi: number of nodules per plant (Meloidogyne incognita) | Bc-Nt: mean of the diameter of the lesion (Botrytis cinerea [4]) [mm] | Pp-Nt: percentage of mortality (Phytophthora parasitica) [%] | Bc-SI: mean of the diameter of the lesion (Botrytis cinerea [5]) [mm] | Titers of the bacterium ([6]; 0.001 μM) [copies per reaction] | Titers of the bacterium ([6]; 0.01 μM) [copies per reaction] | Titers of the bacterium ([6]; 1 μM) [copies per reaction] | Titers of the bacterium ([6]; 5 μM) [copies per reaction] | Titers of the bacterium ([6]; 10 μM) [copies per reaction] |
| --- | --- | --- | --- | --- | --- | --- | --- | --- | --- | --- | --- | --- | --- | --- | --- | --- |
| Cc1coc2cc3oc(=O)c(CCC(=O)NCC(O)CO)cc3cc12 (stereo not shown) [IA, N-(2,3-dihydroxypropyl)-3-{6-methyl-2-oxo-2H-furo[3,2-g]chromen-3-yl}propanamide] | 12 | 1 | 2 | 18 | 1 | 3 | 1.2 | 23 | 0.3 | 1 | 0.8 | 524 | 12 | 0 | 52 | 9652 |
| O=C(CCc1cc2cc3c(C4CCCCC4)coc3cc2oc1=O)NCC(O)CO (stereo not shown) [IC, 3-{6-cyclohexyl-2-oxo-2H-furo[3,2-g]chromen-3-yl}-N-(2,3-dihydroxypropyl)propanamide] | 13 | 3 | 4 | 22 | 2 | 2 | 0.5 | 4 | 0.9 | 1 | 0.8 | 432 | 9 | 0 | 43 | 9632 |
| O=C(CCc1cc2cc3c(C4CCCC4)coc3cc2oc1=O)NCC(O)CO (stereo not shown) [ID, 3-{6-cyclopentyl-2-oxo-2H-furo[3,2-g]chromen-3-yl}-N-(2,3-dihydroxypropyl)propanamide] | 0 | 8 | 0 | 11 | 1 | 2 | 1.5 | 0 | 1.5 | 0 | 2.5 | 123 | 0 | 0 | 123 | 5489 |
| O=C(CCc1cc2cc3c(-c4ccc5ccccc5c4)coc3cc2oc1=O)NCC(O)CO (stereo not shown) [IE, N-(2,3-dihydroxypropyl)-3-[6-(naphthalen-2-yl)-2-oxo-2H-furo[3,2-g]chromen-3-yl]propanamide] | 0 | 7 | 0 | 0 | 0 | 0 | 2.4 | 0 | 1.5 | 0 | 0.8 | 587 | 0 | 0 | 87 | 6574 |
| O=C(CCc1cc2cc3ccoc3cc2oc1=O)NCC(O)CO (stereo not shown) [IF, N-(2,3-dihydroxypropyl)-3-{2-oxo-2H-furo[3,2-g]chromen-3-yl}propanamide] | 0 | 5 | 0 | 0 | 0 | 1 | 0.7 | 0 | 0.9 | 0 | 1.2 | 985 | 0 | 0 | 98 | 6325 |
| O=C(CCc1cc2cc3c(-n4cccc4)coc3cc2oc1=O)NCC(O)CO (stereo not shown) [IG, N-(2,3-dihydroxypropyl)-3-[2-oxo-6-(1H-pyrrol-1-yl)-2H-furo[3,2-g]chromen-3-yl]propanamide] | 31 | 7 | 0 | 0 | 0 | 1 | 1.2 | 0 | 0.3 | 3 | 0.8 | 657 | 11 | 1 | 65 | 5423 |
| Cc1coc2cc3oc(=O)c(CCC(=O)NCC(O)CO)c(C)c3cc12 (stereo not shown) [IH, N-(2,3-dihydroxypropyl)-3-{4,6-dimethyl-2-oxo-2H-furo[3,2-g]chromen-3-yl}propanamide] | 19 | 1 | 2 | 11 | 1 | 3 | 1.1 | 21 | 2.0 | 1 | 1.6 | 658 | 8 | 12 | 68 | 4569 |
